Reference: patent US20260248766A1, “GLUCOKINASE ACTIVATOR FOR COGNITIVE DISORDERS AND NEURODEGENERATIVE DISEASES” (HUA MEDICINE (SHANGHAI) LTD., priority 2023, published 2026)

Key:
Type in all cases: in vivo, rat
[1] = tested on: GK rats; assay: Fasting blood glucose in GK rats under long-term treatment; details: 8 mg/kg by gavage twice daily from six weeks of age, tested at weeks 6, 8, 12, 16, 20, 29, 31, FIG. 1
Source text: Goto-Kakizaki (GK) rats are a non-obese, spontaneously occurring type 2 diabetes rat model obtained through repeated inbreeding of Wistar rats with glucose tolerance at the upper limit over several generations. […] The hippocampus is a key functional brain region regulating learning and memory abilities. Due to the presence of progressive diabetes symptoms, typical neurodegenerative diseases, and memory deficits, GK rats can be used to evaluate the effects of a drug on preventing memory decline.
(§1) GK rats were randomly divided into the following treatment groups: a GK rat-solvent treatment group (n=9) and a GK rat-Dorzagliatin (8 mg/kg) treatment group (n=8). Age-matched Wistar rats were used as the normal control group, i.e., the Wistar rat-solvent group (n=9). The treatment began at six weeks of age. The rats were administered either the solvent or Dorzagliatin by gavage twice daily, morning and evening. Peripheral blood was collected multiple times from the animals throughout the growth cycle, and the fasting blood glucose levels of the animals were tested (the fasting blood glucose levels of the three groups of rats were tested and analyzed at weeks 6, 8, 12, 16, 20, 29, and 31).

[2] = tested on: insulin receptor isoform IR-B protein; assay: Western blot of IR-B protein in hippocampus of GK rats; details: hippocampus of GK rats after 37 weeks of treatment (43 weeks old); FIG. 6
Protocol: (§2) GK rats were euthanized after 37 weeks of treatment, i.e., when the rats were 43 weeks old, and hippocampal tissue of the GK rats was collected for western blotting to detect the protein expression levels of the biomarkers.
(§3) Animals under anesthesia were rapidly decapitated and their brains were removed in a hypothermic environment. The hippocampal tissue was separated on ice, placed in cryovials, flash-frozen in liquid nitrogen, and then stored in a −80° C. freezer for later use.
(§4) • (1) The tissue homogenizer (TissueLyser II high-throughput tissue homogenizer, QIAGEN) was pre-cooled at −20° C. The hippocampal tissue was taken out from the −80° C. freezer. […]
(§5) Based on the protein concentration determined in step (II), an appropriate amount of protein lysis buffer was added to adjust the protein concentration of each group to a suitable level. […]
(§6) After the membrane transfer was completed, the PVDF membranes were blocked with non-fat milk at room temperature for 1 hour. […] The eluted PVDF membranes were scanned using an electrochemiluminescence (ECL) method with a contact-based non-destructive quantitative imaging instrument (E-blot) to give a western blot image. […]

[3] = tested on: ionotropic glutamate receptor subunit GluN2A; assay: Western blot of GluN2A in hippocampus of GK rats; details: hippocampus of GK rats after long-term treatment; FIG. 11
Source text: (§7) The tissue sampling, protein extraction and quantification, preparation of the denaturated protein samples, and protein gel electrophoresis were completed successively using the steps (I) to (IV) of the above example 2.
(§8) Then, the gel obtained from the electrophoresis was used for membrane transfer. Biomarkers GluN2A and GluN2B were transferred to a membrane using a wet transfer method. The membrane was assembled in the following order: negative electrode-sponge-filter paper-gel-PVDF membrane-filter paper-sponge-positive electrode. The membrane transfer was performed at a constant voltage of 100 V in an ice bath for 70 minutes.
(§9) After the membrane transfer was completed, the PVDF membranes were blocked with BSA or non-fat milk (GluN2A and GluN2B membranes were blocked with BSA, and GAPDH membrane was blocked with non-fat milk), respectively, at room temperature for 1 hour. […] The eluted PVDF membranes were scanned using an electrochemiluminescence (ECL) method with a contact-based non-destructive quantitative imaging instrument (E-blot) to give a western blot image.
(§10) Calculation of the relative expression level of a protein: The western blot images were quantified using an image processing software ImageJ, and the gray value of a target band was measured and used to characterize the protein expression level of the target band. […]

[4] = tested on: ionotropic glutamate receptor subunit GluN2B; assay: Western blot of GluN2B in hippocampus of GK rats; details: hippocampus of GK rats after long-term treatment; FIG. 12
Source text: as §7, §8, §9, §10

[5] = tested on: GK rats; assay: Morris water maze spatial memory test (probe test) in GK rats; details: 8 mg/kg by gavage twice daily, about 27 weeks of treatment (33 weeks old), 1 minute probe test
Protocol: as §1
The Morris water maze test is a commonly used behavioral method to assess the spatial memory, working memory, and spatial discrimination abilities of rodents. […]
Preparation of the experimental environment: The laboratory environment was kept quiet. […] During the test, the latent period of escape, swimming path (distance), speed, and quadrant preference of a rat were recorded using the ANY-maze system. […]
Spatial memory test (probe test): The spatial memory test was performed 24 hours after the end of the training phase. […] The time spent in the original platform quadrant and the swimming distances were recorded, and the data of each group of animals were statistically analyzed.

[6] = tested on: glucose transporter 3 (GLUT3); assay: Western blot of GLUT3 in hippocampus of GK rats; details: hippocampus of GK rats after long-term treatment; FIG. 9
Source text: as §7
(§11) Then, the gel obtained from the electrophoresis was used for membrane transfer. Biomarkers GLUT1, GLUT3, and GAPDH were transferred to a membrane using a semi-dry transfer method. The membrane was assembled in the following order: negative electrode-filter paper-gel-PVDF membrane-filter paper-positive electrode. The membrane transfer was performed at a constant current of 0.2 A at room temperature for 65 minutes.
(§12) After the membrane transfer was completed, the PVDF membranes (GLUT1, GLUT3, GAPDH) were blocked with non-fat milk at room temperature for 1 hour.
(§13) Calculation of the relative expression level of a protein: The western blot images were quantified using an image processing software ImageJ, and the gray value of a target band was measured and used to characterize the protein expression level of the target band. The gray value of a target protein was divided by the gray value of the internal reference protein GAPDH to perform normalization, which characterized the relative expression level of the target band. Statistical analysis was performed on the normalized value of each target band.

[7] = tested on: insulin receptor isoform IR-A protein; assay: Western blot of IR-A protein in hippocampus of GK rats; details: hippocampus of GK rats after 37 weeks of treatment (43 weeks old); FIG. 5
Protocol: as §2, §3, §4, §5, §6

[8] = tested on: glucose transporter 1 (GLUT1); assay: Western blot of GLUT1 in hippocampus of GK rats; details: hippocampus of GK rats after long-term treatment; FIG. 8
Source text: as §7, §11, §12, §13

CC(C)C[C@@H](C(=O)Nc1ccn(C[C@@H](O)CO)n1)N1CC(Oc2ccccc2Cl)=CC1=O [Dorzagliatin]
fasting blood glucose levels vs GK rat-solvent group [1]: significantly lower than those of the GK rat-solvent group | normalized value of IR-B protein band (gray value / GAPDH, mean±SEM) [2]: 1.64±0.06 | normalized value of GluN2A band (gray value / GAPDH, mean±SEM) [3]: 1.05±0.07 | normalized value of GluN2B band (gray value / GAPDH, mean±SEM) [4]: 0.87±0.02 | time spent in the original platform quadrant (mean±SEM) ([5]; FIG. 2): 20.1 s | swimming distance in the original platform quadrant (mean±SEM) ([5]; FIG. 3): 4.21 m | normalized value of GLUT3 band (gray value / GAPDH, mean±SEM) [6]: 1.22±0.13 | normalized value of IR-A protein band (gray value / GAPDH, mean±SEM) [7]: 1.46±0.08 | normalized value of GLUT1 band (gray value / GAPDH, mean±SEM) [8]: 1.67±0.06
